Values belong to the compound of their own block, whether it stands above or below them.
Columns and labels:
[1] = Half life in human whole blood; assay type: ADME, tissue-based
Glucocorticoid receptor = biological target: T1, Glucocorticoid receptor (Homo sapiens, UniProt P04150); assay: Agonist activity at human glucocorticoid receptor in PBMC assessed as inhibition of LPS-induced TNFalpha release; assay type: tissue-based
T1 sequence (P04150 whole entry): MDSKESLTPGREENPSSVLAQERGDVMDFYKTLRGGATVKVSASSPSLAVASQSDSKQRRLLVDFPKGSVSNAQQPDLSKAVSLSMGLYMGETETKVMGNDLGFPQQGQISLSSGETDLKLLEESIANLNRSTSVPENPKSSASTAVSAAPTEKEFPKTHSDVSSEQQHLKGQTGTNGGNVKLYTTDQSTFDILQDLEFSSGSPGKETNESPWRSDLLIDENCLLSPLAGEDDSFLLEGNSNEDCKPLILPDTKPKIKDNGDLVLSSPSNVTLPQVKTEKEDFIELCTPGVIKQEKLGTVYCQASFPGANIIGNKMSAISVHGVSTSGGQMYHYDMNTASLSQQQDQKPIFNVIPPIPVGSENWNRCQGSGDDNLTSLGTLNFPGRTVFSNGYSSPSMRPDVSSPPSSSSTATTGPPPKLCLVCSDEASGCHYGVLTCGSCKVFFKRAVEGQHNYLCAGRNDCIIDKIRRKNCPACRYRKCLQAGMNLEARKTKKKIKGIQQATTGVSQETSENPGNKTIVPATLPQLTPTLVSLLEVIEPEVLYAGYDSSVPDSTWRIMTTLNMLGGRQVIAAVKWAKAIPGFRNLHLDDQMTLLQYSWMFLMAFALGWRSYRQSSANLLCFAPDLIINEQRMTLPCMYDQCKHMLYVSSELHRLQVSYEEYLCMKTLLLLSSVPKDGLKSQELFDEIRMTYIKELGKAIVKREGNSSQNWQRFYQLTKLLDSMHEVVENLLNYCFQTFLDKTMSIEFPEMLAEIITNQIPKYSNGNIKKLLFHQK

[2] = Half life in cultured human keratinocytes; assay type: ADME, cell-based, Keratinocyte
[3] = Drug metabolism in human whole blood assessed as (3R)-3-(hydroxymethyl)-4-oxo-4-[(3S)-3-[[5-[(1R,2S)-1-(p-tolyl)-2-[(2,2,2-trifluoroacetyl)amino]propoxy]pyridine-2-carbonyl]amino]-1-piperidyl]butanoic acid metabolite formation; assay type: ADME, tissue-based
[4] = Drug metabolism in human hepatocytes assessed as (3R)-3-(hydroxymethyl)-4-oxo-4-[(3S)-3-[[5-[(1R,2S)-1-(p-tolyl)-2-[(2,2,2-trifluoroacetyl)amino]propoxy]pyridine-2-carbonyl]amino]-1-piperidyl]butanoic acid metabolite formation; assay type: ADME, cell-based, Hepatocyte
[5] = Drug metabolism in dog whole blood assessed as (3R)-3-(hydroxymethyl)-4-oxo-4-[(3S)-3-[[5-[(1R,2S)-1-(p-tolyl)-2-[(2,2,2-trifluoroacetyl)amino]propoxy]pyridine-2-carbonyl]amino]-1-piperidyl]butanoic acid metabolite formation; assay type: ADME, tissue-based, Canis lupus familiaris
[6] = Drug metabolism in dog hepatocytes assessed as (3R)-3-(hydroxymethyl)-4-oxo-4-[(3S)-3-[[5-[(1R,2S)-1-(p-tolyl)-2-[(2,2,2-trifluoroacetyl)amino]propoxy]pyridine-2-carbonyl]amino]-1-piperidyl]butanoic acid metabolite formation; assay type: ADME, cell-based, Canis lupus familiaris, Hepatocyte
[7] = Drug metabolism in pig whole blood assessed as (3R)-3-(hydroxymethyl)-4-oxo-4-[(3S)-3-[[5-[(1R,2S)-1-(p-tolyl)-2-[(2,2,2-trifluoroacetyl)amino]propoxy]pyridine-2-carbonyl]amino]-1-piperidyl]butanoic acid metabolite formation; assay type: ADME, tissue-based, Sus scrofa
[8] = Drug metabolism in pig hepatocytes assessed as (3R)-3-(hydroxymethyl)-4-oxo-4-[(3S)-3-[[5-[(1R,2S)-1-(p-tolyl)-2-[(2,2,2-trifluoroacetyl)amino]propoxy]pyridine-2-carbonyl]amino]-1-piperidyl]butanoic acid metabolite formation; assay type: ADME, cell-based, Sus scrofa, Hepatocyte
[9] = Drug metabolism in rat whole blood assessed as (3R)-3-(hydroxymethyl)-4-oxo-4-[(3S)-3-[[5-[(1R,2S)-1-(p-tolyl)-2-[(2,2,2-trifluoroacetyl)amino]propoxy]pyridine-2-carbonyl]amino]-1-piperidyl]butanoic acid metabolite formation; assay type: ADME, tissue-based
[10] = Drug metabolism in rat hepatocytes assessed as (3R)-3-(hydroxymethyl)-4-oxo-4-[(3S)-3-[[5-[(1R,2S)-1-(p-tolyl)-2-[(2,2,2-trifluoroacetyl)amino]propoxy]pyridine-2-carbonyl]amino]-1-piperidyl]butanoic acid metabolite formation; assay type: ADME, cell-based, Hepatocyte
[11] = Chemical stability assessed as parent compound remaining at pH 5.5 and 37 degreeC measured after 16 hrs; assay type: physicochemical; conditions: buffer, read-out: Stabilty
[12] = Chemical stability assessed as parent compound remaining at pH 7 and 37 degreeC measured after 16 hrs; assay type: physicochemical; conditions: buffer, read-out: Stabilty
[13] = Photostability of the compound; assay type: physicochemical
[14] = biological target: T2, Glucocorticoid receptor (Homo sapiens) (UniProt P04150); assay: Agonist activity at human glucocorticoid receptor assessed as inhibition of LPS-induced TNFalpha release in PBMC relative to control; assay type: tissue-based
T2 sequence (whole entry): T1 sequence (P04150 whole entry)

[15] = Hepatic clearance in iv dosed rat; assay type: ADME, organism-based; conditions: in vivo
Homo sapiens [16] = organism: Homo sapiens; assay: Selectivity ratio for agonist activity at mineralocorticoid receptor (unknown origin) to agonist activity at glucocorticoid receptor (unknown origin)
Homo sapiens [17] = organism: Homo sapiens; assay: Selectivity ratio for agonist activity at androgen receptor (unknown origin) to agonist activity at glucocorticoid receptor (unknown origin)
Homo sapiens [18] = organism: Homo sapiens; assay: Selectivity ratio for agonist activity at progesterone receptor (unknown origin) to agonist activity at glucocorticoid receptor (unknown origin)
[19] = biological target: Voltage-gated inwardly rectifying potassium channel KCNH2 (Homo sapiens, UniProt Q12809); assay: Inhibition of human ERG
Voltage-gated inwardly rectifying potassium channel KCNH2, sequence (Q12809 whole entry): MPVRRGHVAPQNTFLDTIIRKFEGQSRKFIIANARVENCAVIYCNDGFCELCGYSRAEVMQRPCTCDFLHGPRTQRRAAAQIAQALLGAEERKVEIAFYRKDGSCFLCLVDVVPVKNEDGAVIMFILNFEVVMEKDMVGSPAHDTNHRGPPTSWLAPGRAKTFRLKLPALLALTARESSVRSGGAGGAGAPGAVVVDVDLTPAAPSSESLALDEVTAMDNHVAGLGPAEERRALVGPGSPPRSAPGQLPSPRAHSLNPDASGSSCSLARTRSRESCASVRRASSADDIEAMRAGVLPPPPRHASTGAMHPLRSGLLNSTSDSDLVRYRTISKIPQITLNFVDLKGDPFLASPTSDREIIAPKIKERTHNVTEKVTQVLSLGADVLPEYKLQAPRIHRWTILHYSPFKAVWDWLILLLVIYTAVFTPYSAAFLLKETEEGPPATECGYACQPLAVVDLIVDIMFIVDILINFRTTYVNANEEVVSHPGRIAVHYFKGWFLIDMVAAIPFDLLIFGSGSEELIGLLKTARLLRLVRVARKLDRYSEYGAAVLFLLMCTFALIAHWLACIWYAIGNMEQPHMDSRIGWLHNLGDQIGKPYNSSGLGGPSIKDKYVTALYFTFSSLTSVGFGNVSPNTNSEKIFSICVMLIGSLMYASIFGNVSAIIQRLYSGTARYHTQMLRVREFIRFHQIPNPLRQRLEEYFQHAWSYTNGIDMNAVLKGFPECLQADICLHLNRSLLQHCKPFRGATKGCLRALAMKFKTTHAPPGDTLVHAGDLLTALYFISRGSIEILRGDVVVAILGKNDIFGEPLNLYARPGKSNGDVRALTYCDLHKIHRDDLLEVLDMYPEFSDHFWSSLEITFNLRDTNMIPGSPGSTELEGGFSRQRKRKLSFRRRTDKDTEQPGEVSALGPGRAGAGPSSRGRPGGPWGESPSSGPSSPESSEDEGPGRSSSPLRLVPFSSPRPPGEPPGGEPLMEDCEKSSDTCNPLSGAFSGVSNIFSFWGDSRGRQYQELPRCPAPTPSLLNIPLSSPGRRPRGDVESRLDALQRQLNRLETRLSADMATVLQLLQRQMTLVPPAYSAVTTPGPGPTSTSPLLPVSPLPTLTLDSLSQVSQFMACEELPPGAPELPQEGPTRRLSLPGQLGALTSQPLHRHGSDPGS

Cytochrome P450 = assay: Inhibition of CYP450 (unknown origin); assay type: protein assay; conditions: human

- half-life [1]: 1.38 h
SMILES: Cc1ccc([C@@H](Oc2ccc(C(=O)N[C@H]3CCCN(C(=O)[C@@H]4CCC(=O)O4)C3)nc2)[C@H](C)NC(=O)C(F)(F)F)cc1

- IC50 (Glucocorticoid receptor): 2 nM
SMILES: Cc1ccc([C@@H](Oc2ccc3c(cnn3-c3ccc(F)cc3)c2)[C@H](C)NC(=O)C(F)(F)F)cc1

- IC50 (Glucocorticoid receptor): 26 nM
SMILES: Cc1ccc([C@@H](Oc2ccc(C(=O)Nc3ccccc3)nc2)[C@H](C)NC(=O)C(F)(F)F)cc1

- half-life [1]: 1.7 h
- half-life [2]: > 6 h
SMILES: Cc1ccc([C@@H](Oc2ccc(C(=O)N[C@H]3CCCN(C(=O)[C@@H]4COC(=O)C4)C3)nc2)[C@H](C)NC(=O)C(F)(F)F)cc1

- IC50 (Glucocorticoid receptor): 79 nM
SMILES: Cc1ccc([C@@H](Oc2ccc(C(=O)N[C@H]3CCCN(C(=O)[C@H]4COC(=O)C4)C3)cc2)[C@H](C)NC(=O)C(F)(F)F)cc1

- half-life [1]: > 2 h
- half-life [2]: > 6 h
SMILES: Cc1ccc([C@@H](Oc2ccc(C(=O)N[C@H]3CCCN(C(=O)[C@H]4CCC(=O)O4)C3)nc2)[C@H](C)NC(=O)C(F)(F)F)cc1

- IC50 (Glucocorticoid receptor): 1 nM
SMILES: C[C@H](NC(=O)C(F)(F)F)[C@H](Oc1ccc(C(=O)O[C@H]2CCCN(C(=O)[C@H]3COC(=O)C3)C2)cc1)c1ccc(C2CC2)cc1

- half-life [1]: 0.283 h
SMILES: Cc1ccc([C@@H](Oc2ccc(C(=O)N[C@@H]3CCCN(C(=O)[C@@H]4COC(=O)C4)C3)nc2)[C@H](C)NC(=O)C(F)(F)F)cc1

- IC50 (Glucocorticoid receptor): 22 nM
SMILES: C[C@H](NC(=O)[C@@H]1CCCO1)[C@H](Oc1ccc(C(=O)O[C@H]2CCCN(C(=O)[C@H]3COC(=O)C3)C2)cc1)c1ccc(C2CC2)cc1

- half-life [1]: < 0.167 h
- half-life [2]: > 6 h
SMILES: Cc1ccc([C@@H](Oc2ccc(C(=O)N[C@@H]3CCCN(C(=O)[C@H]4COC(=O)C4)C3)nc2)[C@H](C)NC(=O)C(F)(F)F)cc1

- half-life [1]: 0.733 h
SMILES: Cc1ccc([C@@H](Oc2ccc(C(=O)N[C@@H]3CCCN(C(=O)[C@@H]4CCC(=O)O4)C3)nc2)[C@H](C)NC(=O)C(F)(F)F)cc1

- half-life [1]: < 0.167 h
- half-life [2]: > 6 h
- Drug metabolism [3]: Metabolite_Detected
- Drug metabolism [4]: Metabolite_Detected
- Drug metabolism [5]: Metabolite_Detected
- Drug metabolism [6]: Metabolite_Detected
- Drug metabolism [7]: Metabolite_Detected
- Drug metabolism [8]: Metabolite_Detected
- Drug metabolism [9]: Metabolite_Detected
- Drug metabolism [10]: Metabolite_Detected
- remaining at 16 h [11]: > 95%
- remaining at 16 h [12]: 82%
- Stabilty [13]: Stable
SMILES: Cc1ccc([C@@H](Oc2ccc(C(=O)N[C@H]3CCCN(C(=O)[C@H]4COC(=O)C4)C3)nc2)[C@H](C)NC(=O)C(F)(F)F)cc1

- fold change (FC) [14]: > 100
SMILES: C[C@H](NC(=O)[C@H]1CCCO1)[C@H](Oc1ccc(C(=O)O[C@H]2CCCN(C(=O)[C@@H](CO)CC(=O)O)C2)cc1)c1ccc(C2CC2)cc1

- half-life [1]: 0.85 h
SMILES: Cc1ccc([C@@H](Oc2ccc(C(=O)N[C@@H]3CCCN(C(=O)[C@H]4CCC(=O)O4)C3)nc2)[C@H](C)NC(=O)C(F)(F)F)cc1

- IC50 (Glucocorticoid receptor): 2 nM
- CLH [15]: 500 mL/min/kg
- Selectivity ratio (Homo sapiens [16]): > 100
- Selectivity ratio (Homo sapiens [17]): > 100
- Selectivity ratio (Homo sapiens [18]): > 100
- inhibition (INH) (Cytochrome P450): Not Active
SMILES: C[C@H](NC(=O)[C@H]1CCCO1)[C@H](Oc1ccc(C(=O)O[C@H]2CCCN(C(=O)[C@H]3COC(=O)C3)C2)cc1)c1ccc(C2CC2)cc1
- inhibition (INH) [19]: Not Active

Source: ChEMBL document CHEMBL4725307, “Topical 'dual-soft' glucocorticoid receptor agonist for dermatology” (Bioorg Med Chem Lett, 2020)
